Patent publication US20230105108A1, “COMPOUNDS FOR THE TREATMENT OF BACTERIAL INFECTIONS AND POTENTIATION OF ANTIBIOTICS” (GEORGIA STATE UNIVERSITY RESEARCH FOUNDATION, INC., priority 2019, published 2023)
Where a name gives a salt, the structure may show the parent alone. Read-outs that look alike come from different tables or passages of the source.

Experiments:
B. subtilis = assay: MIC determination and sensitization fold on B. subtilis; format: cell-based; conditions: B. subtilis; for Sensitization fold: erythromycin; for MIC: compound alone, read-out: MIC
E. coli (ATCC 25922) = assay: MIC determination, sensitization fold and FIC index on E. coli; format: cell-based; conditions: for Sensitization: compound up to 25 μM
Summary of the method: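 E. coli in cation-adjusted Mueller Hinton II, 5×10^5 CFU/ml, 24 h at 37 °C shaking; rifampicin two-fold serial dilutions with or without fixed sensitizer (10 μM).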

[1] = Cytotoxicity in H9c2 cells (CCK-8); format: cell-based; conditions: rat, H9c2 cells; for CC50 at 24 h: H9c2 cell line
Summary of the method: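 H9c2 cells were grown in DMEM with 10% FBS, seeded the day before, and exposed to a range of di-amidine concentrations for 24 h at 37 °C, 5% CO2. Viability was read by CCK-8 after 3 h at 37 °C as absorbance at 450 nm.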

M. smegmatis = assay: MIC on mycobacteria; format: cell-based, Mycobacterium smegmatis; conditions: for MIC: Mycolicibacterium smegmatis, read-out: MIC on mycobacteria
[2] = Cytotoxicity on mammalian cells (CCK-8), HEK293; format: cell-based; conditions: human, HEK293 cells; HEK293 cell line; 24 h
Experimental: (§1) Cytotoxicity test of bacterial sensitizers on mammalian cells. Cell viability was assessed by using Cell Counting Kit-8 (CCK-8, Dojindo, Japan). HEK293 or NIH3T3 cells were seeded in a 96-well plate one day before the experiment to reach 80% confluency. Cells were then incubated with various concentration of bacterial sensitizers at 37° C. with 5% CO2 for 24 h, then 10 μL of CCK-8 solution was added to each well, and the plate was incubated for an additional at 37° C. 2 h with 5% CO2. The optical density at 450 nm was recorded by plate reader; and the results were calculated as a percentage of viability compared with the untreated control.

[3] = Cytotoxicity on mammalian cells (CCK-8), NIH3T3; format: cell-based; conditions: mouse, NIH3T3 cells, 3T3 cell line
Experimental: as §1

HEK293 cells = assay: Cytotoxicity on mammalian cells (CCK-8), HEK293; format: cell-based; conditions: Homo sapiens, HEK293
Experimental: as §1

E. coli = assay: Sensitization of E. coli (sensitization fold), Example 2; format: cell-based
Experimental: The sensitization fold of select compounds of the present invention was determined. E. coli bacteria were cultured in nutrient broth at 37° C. overnight prior to treatment. […] Bacterial density was measured based on OD600.

[4] = Escherichia coli, ATCC25922, 24 h

Compound	Sensitization fold (B. subtilis; compound at 12 μM)	MIC (B. subtilis; Bacillus subtilis, 24 h) [µM]	MIC (E. coli (ATCC 25922); [4]) [µM]	CC50 at 24 h [1] [µM]	MIC (M. smegmatis) [µM]	Sensitization fold (B. subtilis; compound at 6 μM)	Sensitization (E. coli (ATCC 25922); E. coli, rifampicin)	CC50 at 24 h [2] [µM]	CC50 at 24 h [3] [µM]	further results
N=C(N)c1ccc(OCc2cccc(COc3ccc(C(=N)N)cc3)c2F)cc1 [DB2573, 1,3-Bis{(4-amidino)-phenoxymethyl}-2-fluorobenzene dihydrochloride]	4-fold at 12 μM	25	25	50	12					Sensitization fold (E. coli (ATCC 25922); E. coli, rifampicin, compound at 12 μM): 32-fold at 12 μM
N=C(N)c1ccc(OCc2ccc(COc3ccc(C(=N)N)cc3)cc2)cc1 [MD-101, 1,4-Bis [(4-amidino)-phenoxymethyl]benzene dihydrochloride]		25	100	50	3 to 6	4-fold at 6 μM,	No effect up to 25 μM	> 100	> 100	Sensitization fold (B. subtilis; compound at 3 μM): 2-fold at 3 μM.
1, 4-Bis [((4-amidino)-2-methoxy)-phenoxy methyl]2-fluorobenzene dihydrochloride [MD-104]	8-fold at 12 μM					2-fold at 6.	No effect up to 25 μM.			MIC (B. subtilis): 25 µM; MIC (E. coli (ATCC 25922); E. coli, compound alone, read-out: MIC): 50 µM; MIC on mycobacteria (M. smegmatis; M. smegmatis): 6 to 12 µM
CC(C)(C)c1cc(COc2ccc(C(=N)N)cc2)cc(COc2ccc(C(=N)N)cc2)c1 [MD-105, 4,4′-(((5-(tert-butyl)-1,3-phenylene)bis(methylene))bis(oxy))dibenzimidamide dihydrochloride]			25	25	6					Sensitization fold (E. coli (ATCC 25922); 10 μM compound, rifampicin as the antibiotic (Table 6)): 16 fold; Sensitization fold (E. coli (ATCC 25922); E. coli, rifampicin, compound at 10 μM): 16-fold at 10 μM.; IC50 (HEK293 cells): 25 to 50 µM
N=C(N)c1ccc(-c2ccc(-c3ccc(-c4ccc(C(=N)N)o4)o3)o2)cc1 [Compound M]										IC50 at 24 h ([1]; H9c2 cells (ATCC CRL-1446), 24 hours): 100 µM; Sensitization ability: fold sensitization of E. coli towards rifampicin (E. coli; compound at 15 μM): 32 fold; Sensitization ability: fold sensitization of E. coli towards rifampicin (E. coli; compound at 25 μM): 516 fold
N=C(N)c1ccc(OCc2cc(COc3ccc(C(=N)N)cc3)cc(COc3ccc(C(=N)N)cc3)c2)cc1 [MD-107, 4,4′,4″-((benzene-1,3,5-triyltris(methylene))tris(oxy))tribenzimidamide trihydrochloride]		12.5	50	> 100	3 to 6	8-fold at 6 μM		> 100	> 100	Sensitization fold (E. coli (ATCC 25922); E. coli, rifampicin, compound at 12.5 μM): 4-fold at 12.5 μM; Sensitization fold (E. coli (ATCC 25922); E. coli, rifampicin, compound at 25 μM): 8-fold at 25 μM
